Data set [1] deals with T1, MAO-B (Homo sapiens, UniProt P27338).
T1 sequence (P27338 1-520): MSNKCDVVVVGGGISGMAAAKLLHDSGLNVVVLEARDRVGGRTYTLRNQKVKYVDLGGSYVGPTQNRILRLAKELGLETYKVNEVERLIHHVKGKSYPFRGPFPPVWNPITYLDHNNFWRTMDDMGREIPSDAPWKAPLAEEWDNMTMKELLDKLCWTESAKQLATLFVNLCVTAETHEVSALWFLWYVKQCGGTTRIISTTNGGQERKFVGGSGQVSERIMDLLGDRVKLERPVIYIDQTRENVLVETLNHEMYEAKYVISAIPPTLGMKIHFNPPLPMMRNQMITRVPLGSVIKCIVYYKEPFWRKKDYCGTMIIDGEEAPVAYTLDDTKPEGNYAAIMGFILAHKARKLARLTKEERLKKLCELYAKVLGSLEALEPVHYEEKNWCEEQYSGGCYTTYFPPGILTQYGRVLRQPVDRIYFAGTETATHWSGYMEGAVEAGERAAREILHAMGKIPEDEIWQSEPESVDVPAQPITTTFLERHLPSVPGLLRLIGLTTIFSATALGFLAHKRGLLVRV
Put plainly: Enzyme inhibition assay (in vitro peroxidase assay) against MAO-B.
Protocol: Enzyme inhibition assays against LSD1, LSD2, MAO-A, and MAO-B were performed as previously described [25]. Technical replicates, n = 3.

Data set [2] is described as follows: Pharmacokinetic analysis, plasma and brain levels. To be noted: male, Crl:CD1 (ICR), mouse, ip, ICR mice, n = 3. Format: in vivo. Here is the method: Male Crl:CD1 (ICR) mice from […], Japan (8 weeks old, n = 3) received a single intraperitoneal injection of S2172 at 30 mg/kg in 5 mL/kg of 15% DMSO/17.5% Cremophor EL/8.75% Ethanol/8.75% HCO-40/50% PBS. Serial blood sampling was conducted from the jugular vein at 0.25, 0.5, 1, 2, 4, and 6 hr time points. At 0.5 h after injection, mice were euthanized, underwent hemoperfusion, and their brain tissue was harvested, homogenized and diluted 4-fold with water. Blood and brain homogenate samples were treated with acetonitrile and centrifuged. The supernatant solution was used for drug level measurement by LC/MS/MS. Pharmacokinetic parameters were calculated using Moment method analysis.

Data set [3] has as its system glioma stem cells (GSCs). The data set can be described thus: Cell growth / viability in glioma stem cells. It is filed as cell-based. The source says: Inhibition of LSD1 can effectively suppress stem-like tumor-propagating cells in human glioma.
Supplementary materials and methods
RNA-seq data of malignant glioma (n=157) and normal tissue (n=5) were obtained from TCGA (http://xena.ucsc.edu/).
Cell lines and culture conditions
Glioblastoma cell line, LN229, was obtained from the American Type Culture Collection (ATCC, Manassas, VA, USA). Normal fibroblast cell lines TIG3 and WI-38, TM31 (low grade glioma) were obtained from the RIKEN Bioresource Research Center (Tsukuba, Japan). Onda10 and KINGS1 (low grade glioma) cell lines were obtained from the Japanese Collection of Research Bioresources (Ibaraki, Japan). F3 is utilized as a neural stem cell line{Kim, 2004 #1412}{Natsume, 2013 #1009}. All cells were maintained in DMEM medium (Wako, Osaka, Japan) containing 5% fetal bovine serum (FBS, Thermo Fisher Scientific, Waltham, MA, USA) and 1% penicillin-streptomycin (Wako). Glioma stem cell lines (GSC1228, GSC316, and GSC222) were established previously{Natsume, 2013 #1009}{Katsushima, 2016 #1156}. […]
For the cell proliferation assay, cells at a density of 1 × 10^5 cells per well were seeded before treatment with LSD1 inhibitors. Cell proliferation was measured after 4 days using a Cell Counting Kit 8 (Dojindo, Kumamoto, Japan) according to the manufacturer ’s […]

In data set [4] the test system is GSC cells. The data set can be described thus: mRNA expression of super-enhancer-associated genes. It is filed as cell-based. To be noted: 96 h. Here is the method:
RNA-seq analysis was conducted to examine gene expression changes associated with super-enhancers/enhancers. Among the genes with de novo H3K4me2 modification, the average log2 fold changes (S2172 treatment relative to DMSO treatment) were −0.12 ± 0.03 for super-enhancer-related genes and −0.01 ± 0.01 for typical enhancer-related genes (P = 0.0004) (Supplementary Fig. S6B). In contrast, among the genes with increased H3K4me2 modification, the average log2 fold changes were −0.04 ± 0.01 for super-enhancer-related genes and −0.07 ± 001 for typical enhancer-related genes (P = 0.028) (Supplementary Fig. S6C). […]
instructions. For GSC cells, the CellTiter-Glo 3D Viability Assay (Promega, Madison, WI, USA) was used to measure the living cells. All proliferation experiments were repeated […]
Total RNA from the cell lines was extracted using TRIzol (Thermo Fisher Scientific), followed by reverse-transcription using Prime Script RT Master Mix (Takara, Kusatsu, Japan). TaqMan qPCR (Roche Diagnostics, Basel, Switzerland) and SYBR Green qPCR (TOYOBO, Osaka, Japan) were performed at least in triplicate for the target genes.
Expression levels of each gene were normalized to GAPDH. GAPDH for TaqMan PCR assays was Hs.PT.39a.22214836 (Integrated DNA Technologies, Coralville, IA, USA).
Oligonucleotide primers used for SYBR Green assays are shown in Supplementary […]

[5] abbreviates: plasma, single intraperitoneal injection 30 mg/kg.

Read-outs that look alike come from different tables or passages of the source. A value given as a limit tells only on which side of the number the result lay.

What is called Ki is the dissociation constant of the complex between target and ligand, obtained from inhibition or displacement. High values mean weaker binding, low ones tighter binding. What is called Cmax is the maximum level reached in the sampled fluid or tissue. Broadly, the Tmax is the time at which the peak concentration occurs. For orientation: half-life means the time needed for the level to fall by half in the phase considered. In data set [1], `NC1CCC(NC2CC2c2cc(F)cc(F)c2OCc2ccccc2)CC1` (stereo not drawn) [S2172] showed a Ki of over 250 µM. The “Inhibition of MAO-B (in words)” value in data set [1] (in vitro peroxidase assay) is “not inhibited”. In addition, in data set [2] (brain, single intraperitoneal injection 30 mg/kg, read-out: Brain concentration at 0.5 hr), the concentration at 0.5 hr is 1.52 ± 0.14 µM. For the same compound, the Kp at 0.5 h in data set [2] (brain/plasma, 0.5 hr after single intraperitoneal injection 30 mg/kg, read-out: Brain/plasma ratio) stood at 2.06 ± 0.39. Further, in data set [2] (setting [5]), the highest concentration (Cmax) came to 1.2 ± 0.12 µM, the Tmax was 0.25 h and the half-life is 4.98 ± 1.64 h. Also, the AUC(0-t) in data set [2] (plasma, single intraperitoneal injection 30 mg/kg, read-out: AUC0–6 h) was determined as 1110 ± 80 nM·h. For the same compound, the concentration at 0.5 hr in data set [2] (plasma, single intraperitoneal injection 30 mg/kg, read-out: Plasma concentration at 0.5 hr) came to 0.75 ± 0.09 µM. The viability at 5 µM in data set [3] (GSC cells, 5 μM, read-out: viable cells) is under 80%. In addition, in data set [3] (mean over glioma stem cells, read-out: mean half-maximal inhibitory concentration (IC50), cell growth in GSCs), the IC50 came out at 13.8 µM. The “expression of super-enhancer-associated genes EGR1 and CDK6” value in data set [4] is on record as “downregulated”.

The values above are taken from article PMC11645267, “Novel pharmacologic inhibition of lysine-specific demethylase 1 as a potential therapeutic for glioblastoma” (Cancer Gene Therapy, 2024).
